Test results taken from patent publication US10336696B2, “Bicarbazole compound, photo-curable composition, cured product thereof, curable composition for plastic lens, and plastic lens” (DIC Corporation, priority 2014, dated 2019).

Assays:
[1] = Refractive index of compounds (NMP solutions, extrapolated); assay type: physicochemical; conditions: compound diluted with NMP, three concentrations, Abbe refractometer, 589 nm (D line)
Description: The refractive index of each of the compounds was determined as follows. A compound was diluted with N-methylpyrrolidone (NMP) to prepare three samples having different concentrations. Liquid refractive indices of the respective solutions were measured, and the measured data was extrapolated to calculate the refractive index.
Measuring device: Abbe refractometer NRA-2T, manufactured by Atago Co., Ltd.
Measurement wavelength: 589 nm (D line)

[2] = Solubility in o-phenylphenoxyethyl acrylate; assay type: physicochemical; design: key: A: Soluble; B: Insoluble; conditions: for Solubility, 10 mass %: compound concentration 10% by mass; for Solubility, 50 mass %: compound concentration 50% by mass
Description: The solubility was evaluated on the basis of whether a compound was soluble or insoluble in o-phenylphenoxyethyl acrylate. The evaluation was performed at two levels at which the compound concentration was 10% by mass and 50% by mass.

Row | Structure (SMILES) | Liquid refractive index [1] | Solubility, 10 mass % [2] | Solubility, 50 mass % [2]
1 | C=Cn1c2ccccc2c2ccccc21 [Comparative Example 1, 9-vinylcarbazole, reference compound] | 1.674 | A | B
2 | c1ccc2c(c1)[nH]c1ccc(-c3ccc4[nH]c5ccccc5c4c3)cc12 [Comparative Example 2, 3,3′-bicarbazole, reference compound] | 1.765 | B | B
3 | C=CC(=O)n1c2ccccc2c2cc(-c3cccc4c5ccccc5n(C(=O)C=C)c34)ccc21 [Example 1, 9,9′-diacryloyl-1,3′-bicarbazole] | 1.723 | A | B
4 | C=Cn1c2ccccc2c2cc(-c3cccc4c5ccccc5n(C=C)c34)ccc21 [Example 2, 9,9′-divinyl-1,3′-bicarbazole] | 1.735 | A | A
5 | C=CC(=O)OCCn1c2ccccc2c2cc(-c3cccc4c5ccccc5n(CCOC(=O)C=C)c34)ccc21 [Example 3, 9,9′-bis(acryloyloxyethyl)-1,3′-bicarbazole] | 1.664 | A | A
6 | c1ccc2c(c1)[nH]c1ccc(-c3cccc4c3[nH]c3ccccc34)cc12 [Synthesis Example 1, 1,3′-bicarbazole] | 1.76 | A | B
